Data taken from US8691815B2, “Substituted oxindole derivatives, drugs containing said derivatives and the use thereof” (AbbVie Deutschland GmbH & Co. KG, priority 2005, dated 2014).
pKi: −log10 of the molar value. Counter-ions that a name gives are not always drawn.

Molecular target: T1, human vasopressin V1b receptor (Homo sapiens, UniProt P47901)
T1 construct: expressed in transfected cells; host or cells: CHO-K1 (cell line hV1b-3H2_CHO), membrane preparation
T1 sequence (P47901 1-424): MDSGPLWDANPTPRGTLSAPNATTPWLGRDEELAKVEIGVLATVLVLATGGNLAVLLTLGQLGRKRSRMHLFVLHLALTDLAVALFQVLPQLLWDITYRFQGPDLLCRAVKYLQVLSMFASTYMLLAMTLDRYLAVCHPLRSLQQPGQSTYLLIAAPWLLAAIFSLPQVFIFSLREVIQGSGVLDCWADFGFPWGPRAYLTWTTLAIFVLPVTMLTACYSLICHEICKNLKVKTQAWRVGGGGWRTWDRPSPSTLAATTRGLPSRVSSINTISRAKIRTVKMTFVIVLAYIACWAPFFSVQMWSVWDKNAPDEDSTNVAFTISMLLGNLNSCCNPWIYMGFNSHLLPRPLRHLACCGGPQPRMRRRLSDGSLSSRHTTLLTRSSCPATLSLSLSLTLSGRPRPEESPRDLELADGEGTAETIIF
Test: Vasopressin V1b receptor binding assay
Conditions: membranes from CHO-K1 cells with stably expressed human V1b receptors, displacement of 1.5 nM 3H-AVP
Outline: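 Membranes were incubated with radioligand for 60 min at room temperature in 50 mM Tris, 10 mM MgCl2, 0.1% BSA, pH 7.4, with 2% DMSO final. Nonspecific binding was defined with 1 uM AVP. Bound ligand was collected by GF/B filtration and counted by scintillation, and binding parameters were derived by nonlinear regression.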

Compared with COc1ccc(S(=O)(=O)N2C(=O)C(c3ccc(CN4CCCC4)cc3OC)(N3CCC[C@H]3C(=O)N(C)C)c3cc(Cl)ccc32)cc1 (single isomer, unassigned) [Example 2], COc1ccc(CN(C)C)cc1C1(N2CCC[C@H]2C(=O)N(C)C)C(=O)N(S(=O)(=O)c2ccc(C#N)cc2)c2ccc(Cl)cc21 (stereo partly drawn) [Example 95, (S)-1-[5-Chloro-1-(4-cyanobenzenesulfonyl)-3-(5-dimethylaminomethyl-2-methoxy-phenyl)-2-oxo-2,3-dihydro-1H-indol-3-yl]pyrrolidine-2-dimethylcarboxamide] is lower in pKi: > 9.00 for the first, 8.00 to 9.00 for the second. The first binds more tightly here.

COc1ccc(CN2CCCC2)cc1C1(N2CCC[C@H]2C(=O)N(C)C)C(=O)N(S(=O)(=O)c2ccc(C#N)cc2)c2ccc(Cl)cc21 (stereo partly drawn) [Example 96, (S)-1-[5-Chloro-1-(4-cyanobenzenesulfonyl)-3-(2-methoxy-5-pyrrolidin-1-ylmethyl-phenyl)-2-oxo-2,3-dihydro-1H-indol-3-yl]pyrrolidine-2-dimethylcarboxamide] and COc1ccc(CN2CCN(C)CC2)cc1C1(N2CCC[C@H]2C(=O)N(C)C)C(=O)N(S(=O)(=O)c2ccc(C#N)cc2)c2ccc(Cl)cc21 (stereo partly drawn) [Example 97, (S)-1-{5-Chloro-1-(4-cyanobenzenesulfonyl)-3-[2-methoxy-5-(4-methylpiperazin-1-yl-methyl)phenyl]-2-oxo-2,3-dihydro-1H-indol-3-yl}pyrrolidine-2-carboxylic acid dimethylamide, trifluoroacetic acid salt] cannot be ordered by pKi: > 9.00 for the first, > 9.00 for the second.

Compared with COc1ccc(CN(C)C)cc1C1(N2CCC[C@H]2C(=O)N(C)C)C(=O)N(S(=O)(=O)c2ccc(F)cc2)c2ccc(Cl)cc21 (stereo partly drawn) [Example 98, (S)-1-[5-Chloro-3-(5-dimethylaminomethyl-2-methoxyphenyl)-1-(4-fluorobenzene-sulfonyl)-2-oxo-2,3-dihydro-1H-indol-3-yl]pyrrolidine-2-dimethylcarboxamide, trifluoroacetic acid salt], COc1cc(CN2CCNCC2)ccc1C1(N2CCC[C@H]2C(=O)N(C)C)C(=O)N(S(=O)(=O)c2ccc(C#N)cc2)c2ccc(Cl)cc21 (stereo partly drawn) [Example 99, (S)-1-[5-Chloro-1-(4-cyanobenzenesulfonyl)-3-(2-methoxy-4-piperazin-1-ylmethyl-phenyl)-2-oxo-2,3-dihydro-1H-indol-3-yl]pyrrolidine-2-dimethylcarboxamide, trifluoroacetic acid salt] is higher in pKi: 8.00 to 9.00 for the first, > 9.00 for the second. The second binds more tightly here.

CCCNCc1ccc(OC)c(C2(N3CCC[C@H]3C(=O)N(C)C)C(=O)N(S(=O)(=O)c3ccc(C#N)cc3)c3ccc(Cl)cc32)c1 (stereo partly drawn) [Example 100, (S)-1-[5-Chloro-1-(4-cyanobenzenesulfonyl)-3-(2-methoxy-5-propylaminomethyl-phenyl)-2-oxo-2,3-dihydro-1H-indol-3-yl]pyrrolidine-2-dimethylcarboxamide, trifluoroacetic acid salt] and COc1ccc(CNC(C)C)cc1C1(N2CCC[C@H]2C(=O)N(C)C)C(=O)N(S(=O)(=O)c2ccc(C#N)cc2)c2ccc(Cl)cc21 (stereo partly drawn) [Example 101, (S)-1-[5-Chloro-1-(4-cyanobenzenesulfonyl)-3-(5-isopropylaminomethyl-2-methoxy-phenyl)-2-oxo-2,3-dihydro-1H-indol-3-yl]pyrrolidine-2-dimethylcarboxamide, trifluoroacetic acid salt] cannot be ordered by pKi: > 9.00 for the first, > 9.00 for the second.

CNCc1ccc(OC)c(C2(N3CCC[C@H]3C(=O)N(C)C)C(=O)N(S(=O)(=O)c3ccc(C#N)cc3)c3ccc(Cl)cc32)c1 (stereo partly drawn) [Example 102, (S)-1-[5-Chloro-1-(4-cyanobenzenesulfonyl)-3-(2-methoxy-5-methylaminomethyl-phenyl)-2-oxo-2,3-dihydro-1H-indol-3-yl]pyrrolidine-2-dimethylcarboxamide, trifluoroacetic acid salt] and “(S)-1-[3-(4-Aminomethyl-2-methoxyphenyl)-5-chloro-1-(4-cyanobenzenesulfonyl)-2-oxo-2,3-dihydro-1H-indol-3-yl]pyrrolidine-2-dimethylcarboxamide, trifluoroacetic acid salt [Example 76]” fall in the same range of pKi: 8.00 to 9.00 for the first, 8.00 to 9.00 for the second.

First: (S)-1-[3-(4-Aminomethyl-2-methoxyphenyl)-5-chloro-1-(4-fluorobenzenesulfonyl)-2-oxo-2,3-dihydro-1H-indol-3-yl]pyrrolidine-2-dimethylcarboxamide, trifluoroacetic acid salt [Example 75]
Second: (S)-2-({5-Chloro-1-(2,4-dimethoxybenzenesulfonyl)-3-[2-methoxy-4-(4-methyl-piperazin-1-ylmethyl)phenyl]-2-oxo-2,3-dihydro-1H-indol-3-yl}methylamino)-N,N-dimethyl-propionamide [Example 15]
The pKi of the first is lower: 7.00 to 8.00 for the first, > 9.00 for the second.

“(S)-2-{[5-Chloro-1-(2,4-dimethoxybenzenesulfonyl)-3-(4-dimethylaminomethyl-2-methoxyphenyl)-2-oxo-2,3-dihydro-1H-indol-3-yl]methylamino}-N,N-dimethyl-propionamide [Example 13]” was tested, and the pKi was 8.00 to 9.00.

Molecular target: T2, human V1b receptor (Homo sapiens, UniProt P47901)
T2 construct: expressed in transfected cells; host or cells: CHO-K1
T2 sequence (P47901 1-424): T1 sequence (P47901 1-424)
Test: Effect on vasopressin-induced calcium increase in cells having a cloned human vasopressin receptor
Format: cell-based
Conditions: CHO-K1 cells stably transfected with human V1b receptor, Arg-vasopressin 10^-8 M, FLIPR calcium
Procedure: Effect on Vasopressin-induced Calcium Increase in Cells Having a Cloned Human Vasopressin Receptor The functional activity of the test substances was investigated on CHO-K1 cells which were stably transfected with the human V1b receptor. 50 000 cells were seeded in each well of a microtiter plate with 96 wells and incubated in culture medium in a saturated water vapor atmosphere with 5% CO2 at 37° C. overnight. The culture medium consisted of DMEM/Nut Mix F12 with Glutamax I (from Invitrogen), 10% fetal calf serum, 100 units/ml penicillin, 100 μg/ml streptomycin and 800 μg/ml Geneticin. The following day, the cells were washed with culture medium and loaded with a fluorescent dye for calcium in accordance with the manufacturer's statements (Ca^++-Plus-Assay Kit, Molecular Devices). The cells were loaded in the presence of probenzide (1 vol %). The test substances were diluted with culture medium (final concentration 10^−10 to 10^−5M) and incubated with the dye-loaded cells at room temperature for 15 minutes. The Arg-vasopressin (10^−8M) was then added and the maximum fluorescence signal was determined using a FLIPR-96 measuring instrument (Molecular Devices). Concentration-effect plots were constructed using nonlinear regression algorithms (GraphPad Prism 3.0). Kb values were calculated from IC50 values by the method of Cheng and Prusoff (Kb=IC50/1+L/EC50).

COc1ccc(S(=O)(=O)N2C(=O)C(c3ccc(CN4CCCC4)cc3OC)(N3CCC[C@H]3C(=O)N(C)C)c3cc(Cl)ccc32)cc1 (single isomer, unassigned) [Example 2] was tested, and the “functional antagonist of the human vasopressin V1b receptor” value was “functional antagonist”.
